Data set [1] is described as follows: growth suppression of PTEN-null colon cells, dose response, cell-based, HCT116 PTEN knockout (AID 1047).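 Also: HCT116 colon tumor cells with PTEN knocked out; cells exposed to compound for 60 hours before readout; potency for loss of cell viability measured by luminescence.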 Format: functional.
Data set [2] in a line: growth suppression of beta-catenin-knockout colon cells, dose response, cell-based, HCT116, human colon tumor (AID 1045).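 Also: HCT116 colon tumor cells with beta catenin knocked out; cells exposed to compound for 60 hours.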 Format: functional.
Data set [3] can be described thus: inhibitors of HIV Env-driven cell fusion, dose response, cherry-pick (AID 652057). Format: functional, cell-based.
Data set [4] is described as follows: inhibitors of clade B AD8 Env fusion, dose response, cell-based, cherry-pick (AID 652062).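 Also: luciferase signal from cell-cell fusion driven by HIV-1 clade B AD8 Env; potency is for inhibitors of fusion seen as a drop in luminescence.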 Format: functional.
In data set [5] the target is Luciferin 4-monooxygenase (Photinus pyralis, UniProt P08659). Kind of data set: firefly luciferase enzyme inhibitors, dose response, biochemical, luminescence (AID 1891).
A short description of data set [6]: Luminescence Cell-Based Dose Confirmation HTS to Identify Inhibitors of Platelet Dense Granule Release. [Related pubchem assays: 1663 (Primary HTS), 1678 (Summary of Project)]. The class given is functional.
For data set [7], the target named is FAD-linked sulfhydryl oxidase ALR (Homo sapiens, UniProt P55789). Kind of data set: inhibitors of human ALR sulfhydryl oxidase, dose response, biochemical, H2O2 detection, luminescence, cherry-pick (AID 493248).
The next data set addresses Cytochrome P450 2C19 (Homo sapiens, UniProt P33261). Description: Cytochrome panel assay with activity outcomes. Panel member name: p450-cyp2c19 Compounds with AC50 equal or less than 10 uM are considered active. Format: functional.
Another data set has as its target Cytochrome P450 3A4 (Homo sapiens, UniProt P08684).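 Also: CYP3A4 tested as one member of a cytochrome P450 panel screen.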

The source made the active and inactive calls.

Chain of Luciferin 4-monooxygenase (P08659 whole entry): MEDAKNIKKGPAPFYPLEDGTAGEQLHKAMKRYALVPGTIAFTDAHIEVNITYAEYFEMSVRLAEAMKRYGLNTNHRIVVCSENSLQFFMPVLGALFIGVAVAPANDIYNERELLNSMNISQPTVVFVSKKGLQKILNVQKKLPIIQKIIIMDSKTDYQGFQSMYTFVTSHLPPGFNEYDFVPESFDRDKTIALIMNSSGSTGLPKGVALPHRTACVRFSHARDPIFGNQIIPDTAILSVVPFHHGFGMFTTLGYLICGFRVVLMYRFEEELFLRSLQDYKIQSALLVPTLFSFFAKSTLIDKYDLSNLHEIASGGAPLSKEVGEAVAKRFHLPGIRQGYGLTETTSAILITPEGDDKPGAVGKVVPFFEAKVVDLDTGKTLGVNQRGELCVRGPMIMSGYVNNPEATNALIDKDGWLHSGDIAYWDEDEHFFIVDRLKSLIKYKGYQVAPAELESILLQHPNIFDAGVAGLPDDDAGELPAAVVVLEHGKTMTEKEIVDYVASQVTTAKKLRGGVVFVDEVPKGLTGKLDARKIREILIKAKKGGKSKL
Chain of Cytochrome P450 3A4 (P08684 whole entry): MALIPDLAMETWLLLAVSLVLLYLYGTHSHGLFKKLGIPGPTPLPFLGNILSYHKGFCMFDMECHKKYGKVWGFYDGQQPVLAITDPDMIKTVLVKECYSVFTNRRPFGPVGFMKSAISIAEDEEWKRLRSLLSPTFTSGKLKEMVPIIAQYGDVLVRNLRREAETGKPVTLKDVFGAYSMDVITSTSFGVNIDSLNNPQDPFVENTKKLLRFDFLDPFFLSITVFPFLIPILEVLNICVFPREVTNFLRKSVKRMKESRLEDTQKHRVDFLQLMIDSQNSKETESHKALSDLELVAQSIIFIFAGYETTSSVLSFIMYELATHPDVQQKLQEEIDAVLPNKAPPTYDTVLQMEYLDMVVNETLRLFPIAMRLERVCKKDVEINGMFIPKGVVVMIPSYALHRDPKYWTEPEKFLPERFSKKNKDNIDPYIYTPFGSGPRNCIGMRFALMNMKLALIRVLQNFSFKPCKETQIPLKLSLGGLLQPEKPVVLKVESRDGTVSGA
Chain of FAD-linked sulfhydryl oxidase ALR (P55789 whole entry): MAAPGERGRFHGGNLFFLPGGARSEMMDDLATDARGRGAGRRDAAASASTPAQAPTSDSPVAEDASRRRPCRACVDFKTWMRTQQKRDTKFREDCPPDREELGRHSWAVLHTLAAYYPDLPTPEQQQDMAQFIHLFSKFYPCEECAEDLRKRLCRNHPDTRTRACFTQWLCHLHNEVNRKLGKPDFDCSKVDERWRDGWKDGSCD
Chain of Cytochrome P450 2C19 (P33261 whole entry): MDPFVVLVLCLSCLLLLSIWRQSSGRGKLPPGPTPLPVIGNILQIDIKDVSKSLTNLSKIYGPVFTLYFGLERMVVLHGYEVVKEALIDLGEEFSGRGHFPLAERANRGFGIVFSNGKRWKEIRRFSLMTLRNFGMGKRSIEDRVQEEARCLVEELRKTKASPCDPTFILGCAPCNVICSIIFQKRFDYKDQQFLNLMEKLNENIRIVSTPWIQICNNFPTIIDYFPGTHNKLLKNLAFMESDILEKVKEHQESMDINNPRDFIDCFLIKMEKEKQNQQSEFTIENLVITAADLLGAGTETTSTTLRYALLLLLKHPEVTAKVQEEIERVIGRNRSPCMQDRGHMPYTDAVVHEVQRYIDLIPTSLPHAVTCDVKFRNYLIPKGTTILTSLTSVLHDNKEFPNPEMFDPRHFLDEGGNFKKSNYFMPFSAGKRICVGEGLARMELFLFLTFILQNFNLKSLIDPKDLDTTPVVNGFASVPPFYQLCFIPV

For `CCCCNCc1cc(Br)c(OCc2cccs2)c(OC)c1`, the figures for the EC50 in [1] and in data set [2] were 17 µM (active) and 16.6 µM (active), respectively.

As for `C[C@@H]1CN([C@H](C)CO)C(=O)c2cccc(NS(=O)(=O)c3ccccc3)c2O[C@@H]1CN(C)Cc1ccc(Cl)c(Cl)c1`, the AC50 (as a rule, the concentration at which the activity in the assay is half-maximal) is < 0.26 µM (active) in data set [3] and 1.67 µM (active) in data set [4].

As for `Cn1nnnc1SCC(=O)NC1CCCc2ccccc21` (stereo not given), the concentration giving a half-maximal response (EC50) in data set [5] and in data set [6] was > 112 µM (not active) in each case.

As to `Cc1ccc(CNC(=O)CCS(=O)(=O)c2ccc(Br)s2)o1`, the EC50 in data set [5] and in data set [6] was > 112 µM (not active) in each case.

For the compound `CCOC(=O)c1cnc2c([N+](=O)[O-])cnn2c1C`, the concentration giving a half-maximal response (EC50) in data set [5] and in data set [6] was > 112 µM (not active) in each case.

As to `CCCNC(=O)COC(=O)/C=C/c1ccco1`, the EC50 in data set [5] and in [6] was > 112 µM (not active) in each case.

In the case of `C[C@H](CO)N1C[C@H](C)[C@H](CN(C)S(=O)(=O)c2ccccc2)Oc2ccc(NS(=O)(=O)c3ccccc3)cc2CC1=O`, the AC50 is 8.48 µM (active) in [3] and 13.6 µM (active) in data set [4].

`COc1ccc(S(=O)(=O)N(C)C[C@@H]2Oc3ccc(N(C)C)cc3C(=O)N([C@H](C)CO)C[C@@H]2C)cc1`: the AC50 in data set [3] was 12 µM (active); in [4], 26.4 µM (active).

As for `COC(=O)c1nn(-c2ccccc2)c(Sc2ccc(OC)cc2)c1/C=N/O`, the EC50 (in general, the concentration at which the effect is half-maximal) in data set [5] is > 112 µM (not active); in data set [6] it was 28.5 µM (active).

As for `O=C(Nc1ccc(Cl)c(Cl)c1)Nc1ccccc1C(=O)O`, the values for the EC50 in data set [5] and in data set [6] were 0.12 µM (active) and 8.59 µM (active), respectively. Besides, in data set [7], the AC50 was 0.182 µM (active).

Consider `CCCN1[C@H](C(=O)N[C@@H](C)c2ccccc2)[C@@H](CO)[C@@H]2Cn3c(ccc(-c4cccc(F)c4)c3=O)[C@@H]21`, for which the AC50 in [3] was 41.5 µM (active).

Turning to `COc1ccc(CCNC(=O)CSc2nc(N)c3c(C)c(C)oc3n2)cc1OC`, the EC50 in data set [5] and in data set [6] was > 112 µM (not active) in each case.

Turning to `COc1cccc(C(=O)Nc2ccc(Cl)c(C(F)(F)F)c2)c1`, the EC50 in [1] is 43.3 µM (active); in [2], 60.1 µM (active).

Consider `O=C(NCc1ccc2c(c1)OCO2)C1CCN(S(=O)(=O)c2ccc(F)cc2)CC1`, for which the EC50 in data set [5] and in data set [6] was > 112 µM (not active) in each case.

In the case of `Cc1ccc2oc(-c3cccc(NC(=O)C4CCCO4)c3)nc2c1` (stereo not given), the values for the EC50 in [5] and in data set [6] were 26.6 µM (active) and > 112 µM (not active), respectively.

On to `O=C(NNC1=Nc2cccc3cccc1c23)c1ccccc1Br`, for which the EC50 in [1] is 21.9 µM (active); in data set [2] it was 20.8 µM (active).

With `CC(C)Nc1nc(NC(C)(C)C)nc(Oc2ccc(=O)n(-c3ccccc3)n2)n1`, the EC50 in data set [5] and in data set [6] was > 112 µM (not active) each time. For the same compound, the AC50 entry was “inconclusive” on Cytochrome P450 2C19 and 12.6 µM (inconclusive) on Cytochrome P450 3A4.

With `Cc1ccc(S(=O)(=O)N(C)C[C@@H]2Oc3ccc(NC(=O)Nc4ccc5c(c4)OCO5)cc3C(=O)N([C@H](C)CO)C[C@@H]2C)cc1`, the AC50 in [3] is 2.48 µM (active); in data set [4], 5.55 µM (active).

For the compound `Clc1nccnc1N/N=C/c1ccc(Br)cc1`, the EC50 is 2.82 µM (active) in [5] and 4.81 µM (active) in data set [6].

The values are drawn from ChEMBL document CHEMBL1201862, “PubChem BioAssay data set” (2004).
